Source: patent US20240109863A1, “2-PYRIDONE DERIVATIVE, AND PREPARATION METHOD THEREFOR AND PHARMACEUTICAL APPLICATION THEREOF” (KPC PHARMACEUTICALS, INC, priority 2020, published 2024)

Tests used:
THRβ = biological target: T1, THRβ (Homo sapiens, UniProt P10828); experiment: THRβ binding assay (time-resolved FRET coactivator peptide recruitment); format: biochemical; settings: THRβ-LBD/RXRα, SRC2-2 coactivator peptide recruitment, 4 hours at room temperature
T1 construct: RXRα and THRβ-LBD Eu-anti-GST antibody with GST tag
Method: Experimental methods: In vitro analysis of the agonistic effect of compounds on THRβ was performed using time-resolved fluorescence resonance energy transfer coactivator peptide recruitment assays. The assay used biotin-SRC2-2 coactivator peptide, streptavidin-d2, RXRα and THRβ-LBD Eu-anti-GST antibody with GST tag. Eu-anti-GST antibody indirectly labeled THRβ-LBD by binding to the GST tag. Streptavidin-d2 indirectly labeled the SRC2-2 coactivator peptide by binding to the biotin tag. In the presence of RXRα, THRβ-LBD can form heterodimer THRβ-LBD/RXRα with it. […] According to the effect of different concentrations of the compound on the activity of THRβ, the agonistic ability of the compound can be evaluated.
The detailed procedure is as follows: • a. 100× reference compound or compound was prepared with DMSO, and equally diluted by 1:3. • b. 100× gradiently diluted reference compound or compound was diluted with 1× reaction buffer to 4×, which was then added to an assay plate. • c. A mixed solution of 4× THRβ-LBD and 4× RXRα was prepared with 1× reaction buffer, and added to the assay plate. • d. A mixed solution of 2× biotin-SRC2-2, 2× Eu-anti-GST, and 2× streptavidin-d2 was prepared with 1× reaction buffer, and added to the assay plate. • e. The assay plate was centrifuged at 1000 rpm for 1 min, and incubated at room temperature in the dark for 4 hours. • f.

THRα = biological target: T2, THRα (Homo sapiens, UniProt P10827); experiment: THRα binding assay (as the THRβ assay, THRβ replaced with THRα); format: biochemical; settings: for EC50: THRα in place of THRβ; for THRα/β selectivity (fold): ratio of THRα EC50 to THRβ EC50
T2 construct: GST
T2 sequence (P10827 1-410 isoform P10827-2, other chains not shown): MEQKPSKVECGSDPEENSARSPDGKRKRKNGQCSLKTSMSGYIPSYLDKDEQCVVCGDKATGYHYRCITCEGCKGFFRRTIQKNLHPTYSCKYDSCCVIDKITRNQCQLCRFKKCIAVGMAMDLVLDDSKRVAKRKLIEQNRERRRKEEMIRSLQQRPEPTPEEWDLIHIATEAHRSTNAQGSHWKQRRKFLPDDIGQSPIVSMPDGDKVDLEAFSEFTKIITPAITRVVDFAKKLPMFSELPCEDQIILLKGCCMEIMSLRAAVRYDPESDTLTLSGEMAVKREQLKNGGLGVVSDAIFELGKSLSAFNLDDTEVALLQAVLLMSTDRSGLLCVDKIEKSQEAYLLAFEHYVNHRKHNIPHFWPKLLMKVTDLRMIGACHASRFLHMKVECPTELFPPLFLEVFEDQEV
T2 sequence (P19793 whole entry partner, other chains not shown): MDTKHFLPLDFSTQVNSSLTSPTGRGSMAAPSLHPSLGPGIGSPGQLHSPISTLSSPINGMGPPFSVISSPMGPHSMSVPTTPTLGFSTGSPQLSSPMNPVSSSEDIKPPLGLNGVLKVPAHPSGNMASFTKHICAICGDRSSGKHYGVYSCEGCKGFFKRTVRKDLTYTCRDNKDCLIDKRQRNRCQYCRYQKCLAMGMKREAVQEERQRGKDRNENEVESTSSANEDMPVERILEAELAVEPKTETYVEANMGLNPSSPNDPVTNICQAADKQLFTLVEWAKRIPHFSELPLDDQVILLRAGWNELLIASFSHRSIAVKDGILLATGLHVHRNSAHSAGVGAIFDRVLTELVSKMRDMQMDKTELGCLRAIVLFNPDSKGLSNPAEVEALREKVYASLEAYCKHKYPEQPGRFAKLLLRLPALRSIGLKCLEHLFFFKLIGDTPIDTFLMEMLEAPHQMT

T1 sequence (P10828 217-461 limits assumed, other chains not shown): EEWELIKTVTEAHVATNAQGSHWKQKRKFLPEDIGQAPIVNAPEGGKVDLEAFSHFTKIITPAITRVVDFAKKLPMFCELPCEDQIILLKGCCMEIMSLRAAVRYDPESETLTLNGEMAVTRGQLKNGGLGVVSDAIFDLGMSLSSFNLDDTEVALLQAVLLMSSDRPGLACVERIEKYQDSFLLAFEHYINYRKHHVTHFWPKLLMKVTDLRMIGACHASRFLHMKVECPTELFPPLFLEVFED
T1 sequence (P19793 whole entry partner, other chains not shown, the tested form may be a part): as the sequence (P19793 whole entry partner, other chains not shown) above

EC50 (THRβ)	EC50 (THRα)	THRα/β selectivity (fold) (THRα)	SMILES
3 nM	–	–	CC(C)n1cc(Oc2c(Cl)cc(-n3nc(CF)c(=O)[nH]c3=O)cc2Cl)ccc1=O [Example 44, 2-(3,5-Dichloro-4-((1-isopropyl-6-oxo-1,6-dihydropyridin-3-yl)oxy)phenyl)-6-(fluoromethyl)-1,2,4-triazine-3,5(2H, 4H)-dione]
22 nM	–	–	N#Cc1nn(-c2cc(Cl)c(Oc3ccc(=O)n(C4=CCCCC4)c3)c(Cl)c2)c(=O)[nH]c1=O [Example 13, 2-(3,5-Dichloro-4-((1-(cyclohex-1-en-1-yl)-6-oxo-1,6-dihydropyridin-3-yl)oxy)phenyl) -3,5-dioxo-2,3,4,5-tetrahydro-1,2,4-triazine-6-carbonitrile]
23 nM	1140 nM	49.5 fold	N#Cc1cccc(-n2cc(Oc3c(Cl)cc(-n4nc(C#N)c(=O)[nH]c4=O)cc3Cl)ccc2=O)c1 [Example 28, 2-(3,5-Dichloro-4-((1-(3-cyanophenyl)-6-oxo-1,6-dihydropyridin-3-yl)oxy)phenyl)-3,5- -dioxo-1,2,3,4-4,5-tetrahydro-1,2,4-triazine-6-carbonitrile]
40 nM	–	–	CCC(CC)n1cc(Oc2c(Cl)cc(-n3nc(C#N)c(=O)[nH]c3=O)cc2Cl)ccc1=O [Example 7, 2-(3,5-dichloro-4-((6-oxo-1-(pentan-3-yl)-1,6-dihydropyridin-3-yl)oxy)phenyl)-3,5-dioxo-2,3,4,5-tetrahydro-1,2,4-triazine-6-carbonitrile]
1430 nM	–	–	Cc1cc(Oc2c(Cl)cc(-n3nc(C#N)c(=O)[nH]c3=O)cc2Cl)cn(C2CC2)c1=O [Example 18, 2-(3,5-Dichloro-4-((1-cyclopropyl-5-methyl-6-oxo-1,6-dihydropyridin-3-yl)oxy)phenyl) -3,5-dioxo-2,3,4,5-tetrahydro-1,2,4-triazine-6-carbonitrile]
5 nM	117 nM	23.3 fold	O=c1[nH]c(=O)n(-c2cc(Cl)c(Oc3ccc(=O)n(-c4cccc(C(F)(F)F)c4)c3)c(Cl)c2)nc1CF [Example 39, 2-(3,5-Dichloro-4-((6-oxo-1-(3-(trifluoromethyl)phenyl)-1,6-dihydropyridin-3-yl)oxy)phenyl)-6-(fluoromethyl)-1,2,4-triazine-3,5(2H, 4H)-dione]
81 nM	–	–	N#Cc1nn(-c2cc(Cl)c(Oc3ccc(=O)n(-c4cccc(C5CC5)c4)c3)c(Cl)c2)c(=O)[nH]c1=O [Example 31, 2-(3,5-dichloro-4-((1-(3-cyclopropylphenyl)-6-oxo-1,6-dihydropyridin-3-yl)oxy)phenyl)-3,5-dioxo-2,3,4,5-tetrahydro-1,2,4-triazine-6-carbonitrile]
435 nM	–	–	N#Cc1nn(-c2cc(Cl)c(Oc3ccc(=O)n(-c4nccs4)c3)c(Cl)c2)c(=O)[nH]c1=O [Example 34, 2-(3,5-dichloro-4-((6-oxo-1-(thiazol-2-yl)-1,6-dihydropyridin-3-yl)oxy)phenyl)-3,5-dioxo-2,3,4,5-tetrahydro-1,2,4-triazine-6-carbonitrile]
100 nM	–	–	N#Cc1nn(-c2cc(Cl)c(Oc3ccc(=O)n(-c4ccsc4)c3)c(Cl)c2)c(=O)[nH]c1=O [Example 32, 2-(3,5-Dichloro-4-((6-oxo-1-(thiophen-3-yl)-1,6-dihydropyridin-3-yl)oxy)phenyl)-3,5-dioxo-2,3,4,5-tetrahydro-1,2,4-triazine-6-carbonitrile]
119 nM	–	–	N#Cc1nn(-c2cc(Cl)c(Oc3ccc(=O)n(-c4cccs4)c3)c(Cl)c2)c(=O)[nH]c1=O [Example 33, 2-(3,5-Dichloro-4-((6-oxo-1-(thien-2-yl)-1,6-dihydropyridin-3-yl)oxy)phenyl)-3,5-diox o-2,3,4,5-tetrahydro-1,2,4-triazine-6-carbonitrile]
431 nM	–	–	COCCn1cc(Oc2c(Cl)cc(-n3nc(C#N)c(=O)[nH]c3=O)cc2Cl)ccc1=O [Example 8, 2-(3,5-Dichloro-4-((1-(2-methoxyethyl)-6-oxo-1,6-dihydropyridin-3-yl)oxy)phenyl) -3,5-dioxo-2,3,4,5-tetrahydro-1,2,4-triazine-6-carbonitrile]

The remaining lines, values behind:

SMILES	EC50 (THRβ)	EC50 (THRα)	THRα/β selectivity (fold) (THRα)
N#Cc1nn(-c2cc(Cl)c(Oc3ccc(=O)n(-c4cc(F)cc(F)c4)c3)c(Cl)c2)c(=O)[nH]c1=O [Example 29, 2-(3,5-Dichloro-4-((1-(3,5-difluorophenyl)-6-oxo-1,6-dihydropyridin-3-yl)oxy)phenyl) -3,5-dioxo-2,3,4,5-tetrahydro-1,2,4-triazine-6-carbonitrile]	297 nM	–	–
O=c1[nH]c(=O)n(-c2cc(Cl)c(Oc3ccc(=O)n(-c4cccc(F)c4)c3)c(Cl)c2)nc1CF [Example 38, 2-(3,5-dichloro-4-((1-(3-fluorophenyl)-6-oxo-1,6-dihydropyridin-3-yl)oxy)phenyl)-6-(fluoromethyl)-1,2,4-triazine-3,5(2H, 4H)-dione]	3 nM	85 nM	28.3 fold
Cc1cccc(-n2cc(Oc3c(Cl)cc(-n4nc(C#N)c(=O)[nH]c4=O)cc3Cl)ccc2=O)c1 [Example 26, 2-(3,5-Dichloro-4-((6-oxo-1-(3-methylphenyl)-1,6-dihydropyridin-3-yl)oxy)phenyl)-3,5-dioxo-2,3,4,5-tetrahydro-1,2,4-triazine-6-carbonitrile]	60 nM	–	–
Cc1cc(C)cc(-n2cc(Oc3c(Cl)cc(-n4nc(CF)c(=O)[nH]c4=O)cc3Cl)ccc2=O)c1 [Example 42, 2-(3,5-Dichloro-4-((1-(3,5-dimethylphenyl)-6-oxo-1,6-dihydropyridin-3-yl)oxy)phenyl) -6-(fluoromethyl)-1,2,4-triazine-3,5(2H, 4H)-dione]	9 nM	696 nM	72.5 fold
O=c1[nH]c(=O)n(-c2cc(Cl)c(Oc3ccc(=O)n(-c4ccc(F)cc4)c3)c(Cl)c2)nc1CF [Example 37, 2-(3,5-dichloro-4-((1-(4-fluorophenyl)-6-oxo-1,6-dihydropyridin-3-yl)oxy)phenyl)-6-(fluoromethyl)-1,2,4-triazine-3,5(2H, 4H)-dione]	92 nM	9260 nM	100.6 fold
CC(C)Cn1cc(Oc2c(Cl)cc(-n3nc(C#N)c(=O)[nH]c3=O)cc2Cl)ccc1=O [Example 6, 2-(3,5-Dichloro-4-[(1-(2-methylpropyl)-6-oxo-1,6-dihydropyridin-3-yl)oxy]phenyl)-3,5-dioxo-2,3,4,5-tetrahydro-1,2,4-triazine-6-carbonitrile]	100 nM	2030 nM	20.3 fold
O=c1[nH]c(=O)n(-c2cc(Cl)c(Oc3ccc(=O)n(-c4cccc(OC(F)(F)F)c4)c3)c(Cl)c2)nc1CF [Example 40, 2-(3,5-Dichloro-4-((6-oxo-1-(3-(trifluoromethoxy)phenyl)-1,6-dihydropyridin-3-yl)oxy)phenyl)-6-(fluoromethyl)-1,2,4-triazine-3,5(2H, 4H)-dione]	4 nM	95 nM	23.7 fold
O=c1[nH]c(=O)n(-c2cc(Cl)c(Oc3ccc(=O)n(-c4cccs4)c3)c(Cl)c2)nc1CF [Example 43, 2-(3,5-Dichloro-4-((6-oxo-1-(thiophen-2-yl)-1,6-dihydropyridin-3-yl)oxy)phenyl)-6-(fluoromethyl)-1,2,4-triazine-3,5(2H, 4H)-dione]	8 nM	–	–
Cc1cc(C)cc(-n2cc(Oc3c(Cl)cc(-n4nc(C#N)c(=O)[nH]c4=O)cc3Cl)ccc2=O)c1 [Example 30, 2-(3,5-dichloro-4-((1-(3,5-dimethylphenyl)-6-oxo-1,6-dihydropyridin-3-yl)oxy)phenyl)-3,5-dioxo-2,3,4,5-tetrahydro-1,2,4-triazine-6-carbonitrile]	150 nM	–	–
COCCn1cc(Oc2c(Cl)cc(-n3nc(CF)c(=O)[nH]c3=O)cc2Cl)ccc1=O [Example 45, 2-(3,5-Dichloro-4-((1-(2-methoxyethyl)-6-oxo-1,6-dihydropyridin-3-yl)oxy)phenyl)-6-(fluoromethyl)-1,2,4-triazine-3,5(2H, 4H)-dione]	32 nM	–	–
Cc1ccccc1-n1cc(Oc2c(Cl)cc(-n3nc(C#N)c(=O)[nH]c3=O)cc2Cl)ccc1=O [Example 27, 2-(3,5-Dichloro-4-((6-oxo-1-(o-methylphenyl)-1,6-dihydropyridin-3-yl)oxy)phenyl)-3,5-dioxo-1,2,3,4-4,5-tetrahydro-1,2,4-triazine-6-carbonitrile]	136 nM	–	–
CC(C)n1cc(Oc2c(Cl)cc(-n3nc(C#N)c(=O)[nH]c3=O)cc2Cl)cc(C2CC2)c1=O [Example 19, 2-(3,5-Dichloro-4-((5-cyclopropyl-1-isopropyl-6-oxo-1,6-dihydropyridin-3-yl)oxy)phenyl)-3,5-dioxo-2,3,4,5-tetrahydro-1,2,4-triazine-6-carbonitrile]	1340 nM	–	–
N#Cc1nn(-c2cc(Cl)c(Oc3ccc(=O)[nH]c3)c(Cl)c2)c(=O)[nH]c1=O [Example 2, 2-(3,5-Dichloro-4-((6-oxo-1,6-dihydropyridin-3-yl)oxy)phenyl)-3,5-dioxo-2,3,4,5-tetra hydro-1H-1,2,4-triazine-6-carbonitrile]	3650 nM	–	–
